Assay type in all cases: biochemical
Assay [1] concerns the target T1, human JAK1 (a.a. 837-1142) (Homo sapiens, UniProt P23458).
T1 construct: human JAK1 (a.a. 837-1142); His tag (N); made in house; host or cells: insect cells (baculovirus)
As to the kind of experiment: In vitro JAK kinase assay (HTRF, phosphorylation of a biotinylated peptide), JAK1. As to conditions: read-out: JAK1 IC50. The procedure, abridged: (§1)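 Phosphorylation of a biotinylated peptide by the JAK kinase domain, detected by HTRF with Eu-Py20 and SA-APC. ATP was 90 μM for JAK1, 30 μM for JAK2 and 3 μM for JAK3. Reactions ran 1 h at room temperature and were stopped with EDTA, followed by 40 min antibody binding.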
(In TR-FRET formats the signal depends on donor and acceptor labels being close together.)

In assay [2] the target is T2, human JAK3 (a.a. 781-1124) (Homo sapiens, UniProt P52333).
T2 construct: JAK3 (a.a. 781-1124); His tag (N); made in house; host or cells: insect cells (baculovirus)
T2 sequence (P52333 781-1124): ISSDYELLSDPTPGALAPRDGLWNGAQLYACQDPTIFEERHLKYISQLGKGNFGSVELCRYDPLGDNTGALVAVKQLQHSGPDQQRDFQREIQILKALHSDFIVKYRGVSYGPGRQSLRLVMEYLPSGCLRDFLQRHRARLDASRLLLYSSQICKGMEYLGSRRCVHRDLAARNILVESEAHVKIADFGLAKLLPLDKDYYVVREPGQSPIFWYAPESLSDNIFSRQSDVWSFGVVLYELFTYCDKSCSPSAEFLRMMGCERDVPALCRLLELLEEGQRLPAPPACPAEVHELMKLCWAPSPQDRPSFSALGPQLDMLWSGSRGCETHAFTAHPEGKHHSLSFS
The experiment in a line: In vitro JAK kinase assay (HTRF, phosphorylation of a biotinylated peptide), JAK3. The procedure, abridged: as §1

For assay [3], the target named is T3, human JAK2 (a.a. 828-1132) (Homo sapiens, UniProt O60674).
T3 construct: JAK2 (a.a. 828-1132); His tag (N); made in house; host or cells: insect cells (baculovirus)
T3 sequence (O60674 828-1132): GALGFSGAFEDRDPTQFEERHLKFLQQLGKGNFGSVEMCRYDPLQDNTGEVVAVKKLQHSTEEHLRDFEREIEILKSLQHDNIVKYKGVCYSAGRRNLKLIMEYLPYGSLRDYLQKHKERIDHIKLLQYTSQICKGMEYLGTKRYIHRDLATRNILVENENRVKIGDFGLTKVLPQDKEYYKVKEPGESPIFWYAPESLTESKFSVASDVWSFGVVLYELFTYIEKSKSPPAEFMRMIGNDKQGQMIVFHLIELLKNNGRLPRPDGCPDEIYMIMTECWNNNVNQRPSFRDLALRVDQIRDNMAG
As to the kind of experiment: In vitro JAK kinase assay (HTRF, phosphorylation of a biotinylated peptide), JAK2. The method, boiled down: as §1

A further assay has as its target TYK2 (Homo sapiens, UniProt P29597). As to the kind of experiment: TYK2 kinase inhibition (Table A1).

Structures can show the parent of a compound that is named as a salt. Where two headings read alike, the source gives them in different places.

T1 sequence (P23458 849-1154): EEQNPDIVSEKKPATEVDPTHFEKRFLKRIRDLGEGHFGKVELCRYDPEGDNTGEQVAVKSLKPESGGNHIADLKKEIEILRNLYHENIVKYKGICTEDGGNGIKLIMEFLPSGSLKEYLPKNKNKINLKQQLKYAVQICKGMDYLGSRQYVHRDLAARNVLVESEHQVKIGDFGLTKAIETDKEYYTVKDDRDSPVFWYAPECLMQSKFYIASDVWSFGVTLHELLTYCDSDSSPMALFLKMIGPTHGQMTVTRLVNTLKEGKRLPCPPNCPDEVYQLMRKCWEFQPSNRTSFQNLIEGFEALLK
TYK2, sequence (P29597 whole entry): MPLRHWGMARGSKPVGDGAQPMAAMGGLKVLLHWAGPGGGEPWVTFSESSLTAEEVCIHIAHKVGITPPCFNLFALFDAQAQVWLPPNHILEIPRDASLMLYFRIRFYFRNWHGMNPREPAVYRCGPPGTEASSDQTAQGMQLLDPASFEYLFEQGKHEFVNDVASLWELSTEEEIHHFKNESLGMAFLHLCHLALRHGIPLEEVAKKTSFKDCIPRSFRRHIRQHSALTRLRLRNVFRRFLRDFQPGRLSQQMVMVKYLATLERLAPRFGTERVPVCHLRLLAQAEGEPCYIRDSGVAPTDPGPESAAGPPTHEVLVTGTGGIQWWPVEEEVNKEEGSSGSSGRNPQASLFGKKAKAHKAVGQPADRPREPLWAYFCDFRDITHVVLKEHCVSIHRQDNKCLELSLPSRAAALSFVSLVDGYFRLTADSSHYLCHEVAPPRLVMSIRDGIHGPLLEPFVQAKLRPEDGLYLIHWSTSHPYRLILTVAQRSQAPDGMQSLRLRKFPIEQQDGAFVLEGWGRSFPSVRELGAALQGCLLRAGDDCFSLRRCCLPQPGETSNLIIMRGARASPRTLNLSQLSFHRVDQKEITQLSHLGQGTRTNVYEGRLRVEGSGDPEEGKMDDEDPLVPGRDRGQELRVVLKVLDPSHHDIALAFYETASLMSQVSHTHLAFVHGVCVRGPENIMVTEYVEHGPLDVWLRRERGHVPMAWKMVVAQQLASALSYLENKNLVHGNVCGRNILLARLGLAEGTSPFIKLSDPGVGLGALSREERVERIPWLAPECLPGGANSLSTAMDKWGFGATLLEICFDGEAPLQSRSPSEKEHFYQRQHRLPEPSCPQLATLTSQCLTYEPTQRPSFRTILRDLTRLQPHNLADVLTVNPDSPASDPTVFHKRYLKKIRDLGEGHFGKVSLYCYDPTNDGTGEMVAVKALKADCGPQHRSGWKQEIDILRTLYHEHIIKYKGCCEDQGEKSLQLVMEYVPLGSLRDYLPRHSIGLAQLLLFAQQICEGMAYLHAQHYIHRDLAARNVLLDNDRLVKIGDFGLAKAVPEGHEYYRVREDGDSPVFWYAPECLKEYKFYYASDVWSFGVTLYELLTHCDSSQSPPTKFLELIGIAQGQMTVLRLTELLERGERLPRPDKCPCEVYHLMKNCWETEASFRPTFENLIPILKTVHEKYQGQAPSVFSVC

What is called IC50 is the concentration at which inhibition is half-maximal. Regarding `Cc1csc(NC(=O)N2CCC(CCOc3ccc4cc3CCc3cncc(c3)Nc3ncc(Cl)c(n3)N4)CC2)c1` [Example D172, 4-(2-{[6-Chloro-2,4,8,18,22-pentaazatetracyclo[14.3.1.1(3,7).1(9,13)]docosa-1(20),3(22),4,6,9(21),10,12,16,18-nonaen-12-yl]oxy}ethyl)-N-(4-methyl-2-thienyl)piperidine-1-carboxamide bis(trifluoroacetate)], the IC50 is 130 nM in assay [1] (Table D1), > 400 nM in assay [2] (Table D1), > 400 nM in assay [3] (Table D1) and > 400 nM at TYK2 (Table D1).

As for `N#Cc1ccc(C(=O)N2CCN(c3ccc4cc3CCc3cccc(c3)Nc3ncc(Cl)c(n3)N4)CC2)cc1` [Example D95, 4-({4-[6-Chloro-2,4,8,22-tetraazatetracyclo[14.3.1.1(3,7).1(9,13)]docosa-1(20),3(22),4,6,9(21),10,12,16,18-nonaen-12-yl]piperazin-1-yl}carbonyl)benzonitrile bis(trifluoroacetate)], the IC50 turned out to be 25 nM in assay [1] (Table D1), 87 nM in assay [2] (Table D1), 15 nM in assay [3] (Table D1) and 106 nM against TYK2 (Table D1).

In the case of `O=C(Cc1ccncc1)Nc1ccc2cc1CCc1cccc(c1)Nc1ncc(Cl)c(n1)N2` [Example C40, N-[6-Chloro-2,4,8,22-tetraazatetracyclo[14.3.1.1(3,7).1(9,13)]docosa-1(20),3(22),4,6,9(21),10,12,16,18-nonaen-12-yl]-2-pyridin-4-ylacetamide bis(trifluoroacetate)], the IC50 in assay [1] was found to be 62 nM; in assay [2], 804 nM; in assay [3], 56 nM; against TYK2 it was 291 nM.

On to `CC(=O)N1CCC[C@@H](CC(=O)Nc2ccc3cc2CCc2cccc(c2)Nc2ncc(Cl)c(n2)N3)C1` [Example D200, 2-[(3S)-1-Acetylpiperidin-3-yl]-N-[6-chloro-2,4,8,22-tetraazatetracyclo[14.3.1.1(3,7).1(9,13)]docosa-1(20),3(22),4,6,9(21),10,12,16,18-nonaen-12-yl]acetamide trifluoroacetate], for which the IC50 in assay [1] (Table D1) amounted to 8.1 nM; in assay [2] (Table D1), 34 nM; in assay [3] (Table D1) it was 9.3 nM; against TYK2 (Table D1), 12 nM.

`O=C(C[C@H]1CCN(c2nc3cccnc3o2)C1)Nc1ccc2cc1CCc1cncc(c1)Nc1ncc(Cl)c(n1)N2` [Example D139, N-[6-Chloro-2,4,8,18,22-pentaazatetracyclo[14.3.1.1(3,7).1(9,13)]docosa-1(20),3(22),4,6,9(21),10,12,16,18-nonaen-12-yl]-2-[(3R)-1-[1,3]oxazolo[5,4-b]pyridin-2-ylpyrrolidin-3-yl]acetamide tris(trifluoroacetate)]: the IC50 is 12 nM in assay [1] (Table D1), > 1000 nM in assay [2] (Table D1), 159 nM in assay [3] (Table D1) and 282 nM against TYK2 (Table D1).

In the case of `O=C(Nc1cc2cc(c1)Nc1nc(ncc1Cl)Nc1cccc(c1)CC2)C1CCC1` [Example B211, N-[6-Chloro-2,4,8,22-tetraazatetracyclo[14.3.1.1(3,7).1(9,13)]docosa-1(20),3(22),4,6,9(21),10,12,16,18-nonaen-11-yl]cyclobutanecarboxamide trifluoroacetate], the IC50 is 56 nM in assay [1] (Table B1), 135 nM in assay [2] (Table B1), 20 nM in assay [3] (Table B1) and 191 nM on TYK2 (Table B1).

For the molecule `CC(=O)N1CCC(COc2ccc3cc2CCc2cncc(c2)Nc2ncc(Cl)c(n2)N3)C1` (stereo not drawn) [Example C56, 12-[(1-Acetylpyrrolidin-3-yl)methoxy]-6-chloro-2,4,8,18,22-pentaazatetracyclo[14.3.1.1(3,7).1(9,13)]docosa-1(20),3(22),4,6,9(21),10,12,16,18-nonaene bis(trifluoroacetate)], the half-maximal inhibitory concentration (IC50) in assay [1] is 216 nM; in assay [2] it was > 400 nM; in assay [3], 255 nM; on TYK2, > 400 nM.

Take `O=C(c1cccnc1)N1CCC(CCOc2ccc3cc2CCc2cncc(c2)Nc2ncc(Cl)c(n2)N3)CC1` [Example D180, 6-Chloro-12-{2-[1-(pyridin-3-ylcarbonyl)piperidin-4-yl]ethoxy}-2,4,8,18,22-pentaazatetracyclo[14.3.1.1(3,7).1(9,13)]docosa-1(20),3(22),4,6,9(21),10,12,16,18-nonaene tris(trifluoroacetate)]: the IC50 in assay [1] (Table D1) was 255 nM; in assay [2] (Table D1), > 400 nM; in assay [3] (Table D1), > 400 nM; on TYK2 (Table D1) it was > 400 nM.

Take `O=C(COc1ccc2cc1CCc1cncc(c1)Nc1ncc(Cl)c(n1)N2)N1CCN(c2ccccc2)CC1` [Example D234, 6-Chloro-12-[2-oxo-2-(4-phenylpiperazin-1-yl)ethoxy]-2,4,8,18,22-pentaazatetracyclo[14.3.1.1(3,7).1(9,13)]docosa-1(20),3(22),4,6,9(21),10,12,16,18-nonaene tris(trifluoroacetate)]: the IC50 is 41 nM in assay [1] (Table D1), > 400 nM in assay [2] (Table D1), 160 nM in assay [3] (Table D1) and > 400 nM against TYK2 (Table D1).

As to `CC1(C)Cc2cccc(NC(=O)N3CCC(CCOc4ccc5cc4CCc4cncc(c4)Nc4ncc(Cl)c(n4)N5)CC3)c2O1` [Example D175, 4-(2-{[6-Chloro-2,4,8,18,22-pentaazatetracyclo[14.3.1.1(3,7).1(9,13)]docosa-1(20),3(22),4,6,9(21),10,12,16,18-nonaen-12-yl]oxy}ethyl)-N-(2,2-dimethyl-2,3-dihydro-1-benzofuran-7-yl)piperidine-1-carboxamide bis(trifluoroacetate)], the IC50 in assay [1] (Table D1) was 150 nM; in assay [2] (Table D1) it was > 400 nM; in assay [3] (Table D1) it was > 400 nM; on TYK2 (Table D1), > 400 nM.

Consider `O=C(C[C@@H]1CCCNC1)Nc1ccc2cc1CCc1cncc(c1)Nc1ncc(Cl)c(n1)N2` [Example D194, N-[6-Chloro-2,4,8,18,22-pentaazatetracyclo[14.3.1.1(3,7).1(9,13)]docosa-1(20),3(22),4,6,9(21),10,12,16,18-nonaen-12-yl]-2-[(3S)-piperidin-3-yl]acetamidetris(trifluoroacetate)], for which the IC50 in assay [1] (Table D1) was 5.8 nM; in assay [2] (Table D1), 144 nM; in assay [3] (Table D1), 46 nM; on TYK2 (Table D1) it was 23 nM.

As to `O=C(CC1CCN(c2nc3cccnc3o2)CC1)Nc1ccc2cc1CCc1cccc(c1)Nc1ncc(Cl)c(n1)N2` [Example A126, N-[6-Chloro-2,4,8,22-tetraazatetracyclo[14.3.1.1(3,7).1(9,13)]docosa-1(20),3(22),4,6,9(21),10,12,16,18-nonaen-12-yl]-2-(1-[1,3]oxazolo[5,4-b]pyridin-2-ylpiperidin-4-yl)acetamide bis(trifluoroacetate)], the IC50 in assay [1] (method AA1 (90 μM ATP) or AA2 (1000 μM ATP), not stated per value) is 0.5 nM; in assay [2] (method AA1 (3 μM ATP) or AA2 (1000 μM ATP), not stated per value), 34 nM; in assay [3] (method AA1 (30 μM ATP) or AA2 (1000 μM ATP), not stated per value), 2.6 nM; at TYK2 it was 7.5 nM.

Consider `O=C(Cc1cccs1)Nc1ccc2cc1CCc1cccc(c1)Nc1ncc(Cl)c(n1)N2` [Example C42, N-[6-Chloro-2,4,8,22-tetraazatetracyclo[14.3.1.1(3,7).1(9,13)]docosa-1(20),3(22),4,6,9(21),10,12,16,18-nonaen-12-yl]-2-(2-thienyl)acetamide trifluoroacetate], for which the IC50 in assay [1] turned out to be 37 nM; in assay [2], 346 nM; in assay [3], 23 nM; against TYK2, 96 nM.

As to `O=C(Cc1ccccn1)Nc1ccc2cc1CCc1cccc(c1)Nc1ncc(Cl)c(n1)N2` [Example C41, N-[6-Chloro-2,4,8,22-tetraazatetracyclo[14.3.1.1(3,7).1(9,13)]docosa-1(20),3(22),4,6,9(21),10,12,16,18-nonaen-12-yl]-2-pyridin-2-ylacetamide bis(trifluoroacetate)], the IC50 worked out at 112 nM in assay [1], 1170 nM in assay [2], 65 nM in assay [3] and 246 nM at TYK2.

As for `Cc1cc(C(=O)N2CCC(CCNc3ccc4cc3CCc3cncc(c3)Nc3ncc(Cl)c(n3)N4)CC2)no1` [Example D218, 6-Chloro-N-(2-{1-[(5-methylisoxazol-3-yl)carbonyl]piperidin-4-yl}ethyl)-2,4,8,18,22-pentaazatetracyclo[14.3.1.1(3,7).1(9,13)]docosa-1(20),3(22),4,6,9(21),10,12,16,18-nonaen-12-amine tris(trifluoroacetate)], the IC50 in assay [1] (Table D1) is 13 nM; in assay [2] (Table D1) it was > 400 nM; in assay [3] (Table D1), 64 nM; on TYK2 (Table D1), 46 nM.

Values taken from US8871753B2, “Macrocyclic compounds and their use as kinase inhibitors” (Incyte Corporation, priority 2008, dated 2014).
